Experimental findings from patent US5099063A, “Certain phosphinic acid derivatives having antibacterial activity” (Merck & Co., Inc., priority 1990, dated 1992) are described below.

One test deals with T1, D-Alanyl-D-Alanine ligase (Enterococcus hirae, UniProt Q47827).
T1 sequence (Q47827 1-358): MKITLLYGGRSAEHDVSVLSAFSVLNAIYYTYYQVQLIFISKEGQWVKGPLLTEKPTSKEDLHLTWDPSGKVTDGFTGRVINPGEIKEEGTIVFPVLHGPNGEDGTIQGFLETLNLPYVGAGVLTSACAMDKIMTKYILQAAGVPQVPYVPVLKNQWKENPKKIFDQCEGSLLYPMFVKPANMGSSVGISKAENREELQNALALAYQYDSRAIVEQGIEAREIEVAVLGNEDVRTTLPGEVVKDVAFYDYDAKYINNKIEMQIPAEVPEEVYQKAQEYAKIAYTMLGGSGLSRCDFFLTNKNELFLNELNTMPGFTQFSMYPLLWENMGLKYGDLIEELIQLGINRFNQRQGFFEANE
Nature of the test: D-Alanyl-D-Alanine ligase in vitro inhibition. It is filed as biochemical. Particulars: inhibitor pre-incubated with enzyme 40 minutes at room temperature, then 37° C. for 30 minutes; 0.005M (14C-1)-D-alanine; read-out: D-AlaAla Ligase Inhibition IC50. How it is done: The ligase enzyme inhibitory activity of compounds of Formula I have been evaluated in vitro with only minor modifications of the procedures of F. C. Neuhaus (Biochemistry 3, 471-480 (1964) and references cited therein) using D-cycloserine as a control and standard ligase inhibitor. The procedure is as follows:
Streptococcus faecalis (ATCC 8043) was grown as described by Neuhaus (J. Biol. Chem., 237:778, 1962). Cell-free extracts were prepared by sonication followed by centrifugation at 27,000×g for 30 minutes. Protein was precipitated with 55% ammonium sulfate. The precipitate was dissolved in 0.05M Tris-Cl buffer (PH 7.0), dialyzed against 0.0025M glutathione and stored in liquid nitrogen. No loss of activity was observed after 1 year.
The assay mixture contained 0.05M Tris-Cl buffer (pH 7.9), 0.01M KCl, 0.008M MgCl2, 0.005M ATP, 0.005M (14C-1)-D-alanine and 5 μof enzyme (specific activity=0.38 units/mg protein). Assay volume was 0.1 ml.
Inhibitors were pre-incubated with enzyme, MgCl2, KCl and buffer, for 40 minutes at room temperature, before addition of ATP and substrate. Samples were subsequently incubated at 37° C. for 30 minutes.
Twenty μl of each sample was applied to the preabsorbent layer of high resolution, pre-channeled silica-gel TLC plates to stop the reaction. Plates were developed in ethanol:ammonium hydroxide: H2 O (11:1:8) for 2-3 hours and the radioactive zones located and integrated with a Berthold Linear Analyzer. […] IC50 's were determined for active compounds (70% inhibition).
Turning to `CC(N)P(=O)(O)CC(CCCc1ccccc1)C(=O)O` (stereo not drawn) [DL; R2=phenylpropyl; R3=H, 1-Aminoethyl-[2-carboxy-5-phenyl-1-n-pentyl]-phosphinic acid], the IC50 (commonly the concentration that gives 50% inhibition) is 20 µM.

On to `CC(CP(=O)(O)C(C)N)C(=O)O` (stereo not drawn) [DL; R2=methyl; R3=H, 1-Aminoethyl-(2-carboxy-1-propyl)phosphinic acid], for which the half-maximal inhibitory concentration (IC50) is […].

In the case of `C=C(CP(=O)(O)[C@@H](C)N)C(=O)O` [D; R5=H], the IC50 stood at 210 µM.

As to `CCCCCCCC(CP(=O)(O)[C@@H](C)N)C(=O)O` (stereo partly drawn) [D; R2=n-heptyl; R3=H, 1-D-Aminoethyl-[2-carboxy-1-nonyl]-phosphinic acid], the IC50 stood at 4 µM.

In the case of `CCCCCC=C(CP(=O)(O)C(C)N)C(=O)O` (racemic) [DL; R5=n-pentyl, (E,Z isomers), 1-Aminoethyl-(2-carboxy-oct-2-enyl)phosphinic acid (E/Z mixture)], the IC50 is 700 µM.

For `CC(N)P(=O)(O)C/C(=C/Cc1ccccc1)C(=O)O` (racemic) [DL; R5=benzyl (E isomers)], the concentration for half-maximal inhibition (IC50) was 210 µM.

For `CC(CP(=O)(O)[C@@H](C)N)C(=O)O` (stereo partly drawn) [D; R2=methyl; R3=H, 1-D-Aminoethyl-(2l-carboxy-1-propyl)phosphinic acid], the half-maximal inhibitory concentration (IC50) is […].

Regarding `COC(=O)C(C)CP(=O)(O)C(C)N` (stereo not drawn) [DL; R2=methyl; R3=methyl, 1-Aminoethyl-(2-carbomethoxy-1-propyl)phosphinic acid], the IC50 stood at 60 µM.

Regarding `CCC(CP(=O)(O)[C@@H](C)N)C(=O)O` (stereo partly drawn) [D; R2=ethyl; R3=H, 1-D-Aminoethyl-(2l-carboxy-1-n-butyl)phosphinic acid], the half-inhibitory concentration (IC50) came out at 45 µM.

The next test deals with T2, dehydropeptidase-I (renal dipeptidase, EC 3.4.13.11) (Sus scrofa, UniProt P22412).
T2 construct: a solubilized preparation of dipeptidase isolated from hog kidneys; from tissue; host or cells: hog kidney
T2 sequence (P22412 17-409): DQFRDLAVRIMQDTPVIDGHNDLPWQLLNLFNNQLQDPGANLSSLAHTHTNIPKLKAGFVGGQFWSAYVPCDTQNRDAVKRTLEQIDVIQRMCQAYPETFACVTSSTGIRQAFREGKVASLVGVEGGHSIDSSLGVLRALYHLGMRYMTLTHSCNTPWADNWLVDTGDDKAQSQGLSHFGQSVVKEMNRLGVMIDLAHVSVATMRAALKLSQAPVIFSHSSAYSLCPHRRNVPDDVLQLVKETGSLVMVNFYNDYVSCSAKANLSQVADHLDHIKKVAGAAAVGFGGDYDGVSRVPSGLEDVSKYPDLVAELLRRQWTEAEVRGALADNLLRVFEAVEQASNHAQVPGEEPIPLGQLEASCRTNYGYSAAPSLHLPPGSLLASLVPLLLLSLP
Briefly: Renal dehydropeptidase I inhibition (hydrolysis of glycyldehydrophenylalanine). Format: biochemical. Particulars: hog kidney dipeptidase, GDP 0.05 mM, MOPS pH 7.1, 37° C.; Ki stated as concentration which achieves 50% inhibition. Here is the method:
This measured the ability of compounds to inhibit hydrolysis of glycyldehydrophenylalanine (GDP) by a solubilized preparation of dipeptidase isolated from hog kidneys. The procedure is as follows: to a 1 ml system containing 50 mM "MOPS" (3-(N-morpholino)propanesulfonic acid) buffer, pH 7.1, is added 5 μg of lyophilized enzyme, and the test compound at a final concentration of 0.1 mM. After a five minute incubation at 37° C., GDP is added to a final concentration of 0.05 mM. […] Inhibition of the enzyme is gauged by comparison to a standard run containing no inhibitor and is expressed as the inhibitor binding constant, Ki.
On to `CCCCC(CP(=O)(O)C(C)N)C(=O)O` (racemic) [DL; R2=n-butyl], for which the Ki (as a rule, a measure of affinity in units of concentration, obtained from inhibition or displacement) worked out at 0.004 µM.
